Earlier results in patent US20110033519A1, “Device with Aromatase Inhibitor for the Treatment and Prevention of Uterine Fibroids and Method of Use” (priority 2009, published 2011).
Where two headings read alike, the source gives them in different places.

Columns and labels:
fibroids = conditions: three months
human sperm = conditions: incubated in a solution of copper ions; after 120 minutes

For `N#Cc1ccc(C(c2ccc(C#N)cc2)n2cncn2)cc1` [Letrozole], the “reduction in fibroid volume” value (fibroids; study of 35 women, 2.5 mg per day orally) is listed as 45% and the “reduction in fibroid volume” value (fibroids; trial of 16 women, oral, 5 mg/day) is listed as 47%.
For `CC(C)(C#N)c1cc(Cn2cncn2)cc(C(C)(C)C#N)c1` [Anastrozole], the “reduction in fibroid volume” value (fibroids; oral, 1 mg/day) is given as 56%.
For copper ions, the human sperm immotile (human sperm) is given as “Ninety-five”.
